Experimental data reported in patent US8957022B2, “Multimeric tie 2 agonists and uses thereof in stimulating angiogenesis” (Sunnybrook Health Sciences Centre, priority 2006, dated 2015).

Columns and labels:
[1] = molecular target: T1, Tie 2 (Homo sapiens, UniProt Q02763); experiment: Tie 2 activation (pY992 Tie 2 immunoblot) in HUVEC; format: cell-based; set-up: downstream signalling pathways in human umbilical vein endothelial cells (HUVEC) (Cambrex, N.J.); host or cells: HUVEC, passage 3-9
Experimental: Having established that Vasculotide was able to bind Tie 2 (see Example 2), the ability of Vasculotide, when clustered with avidin in a 4:1 ratio (Vasculotide:avidin), to activate the Tie 2 receptor was tested by examining several well established downstream signalling pathways in human umbilical vein endothelial cells (HUVEC) (Cambrex, N.J.). Such signalling pathways are described in, for example, Kim, I. et al. (2000) Circ. Res. 9:952-959; Fujikawa, K. et al. (1999) Exp. Cell. Res. 2:663-672; Babaei, S. et al. (2003) Am. J. Pathol. 6:1927-1936.
HUVEC were grown on 6-well or 10 cm plates (Nunc) coated with gelatin (Sigma). HUVEC were cultured in F12 growth medium containing 10% fetal bovine serum (FBS), 0.1 mg/ml heparin sulphate, 1× penicillin, 1× streptomycin, 1× glutamine, VEGF 10 ng/ml, EGF 10 ng/ml, bFGF 5 ng/ml. All HUVEC were used between passage 3-9.
HUVEC were stimulated with one of either Ang 1 (R&D Systems), Vasculotide, avidin or clustered Vasculotide (preclustered with a 4:1 molar ratio of peptide:avidin in PBS for 2 hours at 4° C.) at various doses. Stimulations with Vasculotide were performed in full serum containing growth media for 15 minutes unless otherwise indicated. Cell lysate preparations and immunoblot analysis were performed by standard methods. Antibodies used for immunoblotting (in this and/or subsequent Examples) were monoclonal anti Tie 2 (Pharminogen), polyclonal anti pY992 Tie 2, (Cell Signaling Technology), polyclonal anti MAPK (Cell Signaling Technology), monoclonal anti phospho MAPK (Cell Signaling Technology), polyclonal anti AKT (Cell Signaling Technology), polyclonal anti pS473 AKT (Cell Signaling Technology), monoclonal anti pS1177 eNOS (BD Biosciences), polyclonal anti pY397 FAK (Biosource), polyclonal anti FAK (Santa Cruz), polyclonal anti smooth muscle actin-Cy3 direct conjugate (Dako), polyclonal anti PECAM (Pharminogen) and polyclonal anti smooth muscle actin (Sigma).
To examine Tie 2 activation kinetics, HUVEC were stimulated with native Ang 1 or clustered Vasculotide for various times. Stimulation was performed in 10% FBS. […] Overall, activation of the receptor by either Ang 1 or clustered Vasculotide followed a very similar time course with phosphorylation returning to almost basal levels sometime after 2 hours.

[2] = tested on: B6.Cg-m(+/+)Lepr(db)/J (db/db) mice; experiment: Excisional wound healing in diabetic mice, topical application; format: in vivo, mouse
Experimental: Pathogen free, nine week old B6.Cg-m(+/+)Lepr(db)/J (db/db) mice were purchased from Jackson Laboratories. Circular, full excisional, 6 mm diameter wounds were made, according to animal committee approval guidelines, equal distant apart on the dorsal side of the mice. Various factors were suspended in sterile Intrasite Topical Gel (Smith and Nephew) at noted concentrations. Treatments were as follows: Vehicle n=8, bFGF (10 μg/ml) n=8, clustered Vasculotide (20 nM) n=4, clustered Vasculotide (5 nM) n=4. Preparations were applied at day 0 (time of wounding), day 2, 4 and 6. Standardized images were taken on days 0, 2, 4, 6 and 7 using a Canon EOS digital Rebel camera. Image J (NIH) was used to manually outline wound perimeter from which total pixel counts (wound area) were determined. Mice were sacrificed on day 7 and full wound beds including margin were excised and fixed in 4% PFA. Wounds were cut in half at the widest point and each half was prepared for either paraffin or frozen sections. Wax sections were processed according to standard protocols for H&E and Masson's Trichrome stain. Images were captured using a Leica DMLS compound light microscope and Pixel Link camera at 5× and 20×. Student's t test was used to test the statistical significance.
For histological scoring, sections were fixed in 4% paraformaldehyde, embedded in paraffin and sectioned and stained with H & E and Masson's trichrome. Sections were evaluated by a pathologist for re-epithelialization, granulation tissue formation, and inflammation, with criteria used for scoring skin as follows:
• 0—none • 1—minimal (0-20% regrowth from wound margins) • 2—mild (25% to 50% regrowth) • 3—moderate (>50% regrowth, up to 100% but not >2 cells thick along length) • 4—complete regrowth (epithelium>1 cell thick along length, keratinized) Granulation Tissue (GT) and Neovascularization: • 0—none • 1—minimal (1-3 small, isolated islands of GT at margins of defect) • 2—mild (multifocal, patchy islands of GT underlying tissue defect, <10 new blood vessels) • 3—moderate (locally extensive bands of GT underlying length of defect) • 4—marked (dense bands of GT at margins and underlying length of defect with collagen fibrils and numerous blood vessels) Inflammation (within Defect): • 0—none • 1—minimal (a few scattered neutrophils at margins of defect) • 2—mild (multifocal aggregates of up to 5 neutrophils underlying defect) • 3—moderate (multifocal aggregates of up to 10 neutrophils and occasional macrophages, minimal to mild edema) • 4—marked (locally extensive, dense neutrophilic infiltrates with lesser numbers of macrophages, mild-moderate edema)

[3] = tested on: HUVEC; experiment: Modified Boyden chamber migration assay; format: cell-based, human; details: for Chemotactic cell migration versus no treatment: 4 hours, clustered Vasculotide 2 nM and 10 nM
Experimental: To test if Vasculotide, like Ang 1, was capable of promoting these processes, the effect of Vasculotide on EC migration was tested using a modified Boyden chamber assay. HUVEC were seeded at a density of 8.4×10^4 cells in 500 μl of F12 growth media plus 0.1% FBS in the upper chamber of an 8 μm pore size modified Boyden chamber (Falcon). 500 μl of F12 media plus 0.1% FBS plus various growth factors (Ang 1 (R& D Systems), unclustered or clustered Vasculotide, VEGF (R&D Systems) or clustered Vasculotide in combination with VEGF) or controls were placed in the bottom chamber. Cells were allowed to migrate for 4 hours in a 37° C., 5% CO2 incubator. Nonmigrating cells were scraped off, and filters were fixed in 100% methanol for 5 minutes, stained with Harris' Hematoxylin (BDH) for 10 minutes and washed twice with tap water for 3 minutes each. Filters were then mounted using Aquapolymount mounting medium. Cells that had migrated more than 50% of the way through the pore were scored as positive for migration.
Student's t test was used to test the statistical significance with a 95% confidence interval. Stimulations were performed in triplicate and migrating cells in 6 microscopic fields per replicate were counted.

[4] = molecular target: T1, Tie 2; experiment: In vitro pull down assay of Tie 2 from EaHy926 cell lysate; format: binding; set-up: a cell lysate of EaHy926 endothelial cells (which express high levels of Tie 2) was prepared; endogenous in cells; host or cells: EaHy926 endothelial cells
Experimental: In this example, the ability of Vasculotide to bind the Tie 2 receptor, despite the engineered modifications, was tested using an in vitro pull down assay. In the pull down assay, a cell lysate of EaHy926 endothelial cells (which express high levels of Tie 2) was prepared in Phospho Lipase Cγ lysis buffer (50 mM Hepes buffer pH 7.5, 150 mM NaCl, 10% glycerol, 1% Triton X-100, 1.5 mM MgCl2, 1.0 mM EGTA, 10 mM NaPPi, […], 2 mM Na3VO4, 1× aprotinin, 1× leupeptin and 1×PMSF). The whole cell lysate was mixed with either unclustered biotinylated Vasculotide or biotinylated irrelevant peptide. The biotinylated peptides then were isolated with avidin agarose and subsequently tested for their ability to precipitate Tie 2 via standard immunoblot analysis using anti-Tie 2 antibody.

T1 sequence (Q02763 23-1124): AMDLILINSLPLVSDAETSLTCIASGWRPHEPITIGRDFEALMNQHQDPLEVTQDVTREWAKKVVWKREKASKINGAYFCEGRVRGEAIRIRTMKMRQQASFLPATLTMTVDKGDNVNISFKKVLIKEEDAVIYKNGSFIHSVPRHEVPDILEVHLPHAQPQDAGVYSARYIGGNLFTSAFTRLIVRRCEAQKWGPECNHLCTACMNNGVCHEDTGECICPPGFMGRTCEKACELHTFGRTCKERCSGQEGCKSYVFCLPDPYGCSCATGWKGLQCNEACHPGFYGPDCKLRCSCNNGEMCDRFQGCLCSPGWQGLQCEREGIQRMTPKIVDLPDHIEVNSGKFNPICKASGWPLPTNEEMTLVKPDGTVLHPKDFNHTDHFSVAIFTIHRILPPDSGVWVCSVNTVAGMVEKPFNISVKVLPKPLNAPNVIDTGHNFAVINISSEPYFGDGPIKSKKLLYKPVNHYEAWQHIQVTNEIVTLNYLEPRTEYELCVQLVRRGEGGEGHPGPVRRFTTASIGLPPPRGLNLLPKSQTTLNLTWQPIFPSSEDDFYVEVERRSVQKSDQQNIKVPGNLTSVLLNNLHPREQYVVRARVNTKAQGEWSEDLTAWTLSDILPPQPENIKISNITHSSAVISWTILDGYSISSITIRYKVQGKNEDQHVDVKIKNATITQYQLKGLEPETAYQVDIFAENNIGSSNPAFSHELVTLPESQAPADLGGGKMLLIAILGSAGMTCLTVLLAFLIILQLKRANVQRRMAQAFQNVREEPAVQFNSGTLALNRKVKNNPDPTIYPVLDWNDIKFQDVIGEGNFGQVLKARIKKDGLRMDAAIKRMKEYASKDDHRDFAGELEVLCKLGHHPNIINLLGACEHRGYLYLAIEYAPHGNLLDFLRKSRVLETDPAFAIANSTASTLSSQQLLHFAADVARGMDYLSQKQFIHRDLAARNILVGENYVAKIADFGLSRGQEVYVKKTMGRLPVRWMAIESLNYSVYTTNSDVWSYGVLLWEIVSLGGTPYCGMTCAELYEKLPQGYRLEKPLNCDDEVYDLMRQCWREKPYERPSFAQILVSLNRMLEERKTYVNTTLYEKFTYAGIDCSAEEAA

Row | Substance | Tie 2 phosphorylation without preclustering ([1]; avidin alone and unclustered Vasculotide) | Granulation tissue production (H&E and MT staining) ([2]; day 7 wound sections) | Chemotactic cell migration versus no treatment [3] | Precipitation of Tie 2 (avidin agarose pull down, anti-Tie 2 immunoblot) ([4]; EaHy926 whole cell lysate, unclustered biotinylated peptide) | Ability to activate Tie 2 phosphorylation, time course, versus Ang 1 (400 ng/ml) ([1]; 2 nM, 10% FBS) | Tie 2 receptor activation at high concentration ([1]; 50 nM) | Optimal concentration for Tie 2 activation (pY992 Tie 2) ([1]; 15 minutes) | Benefit at lower concentration ([2]; 5 nM versus 20 nM) | Inflammation (histological score) ([2]; 5 nM, p=0.0979) | Regranulation and neovascularization (histological score) ([2]; 20 nM and 5 nM p=0.0006) | Wound margin (pixel counts) at day 2 ([2]; 20 nM topical, p=0.05, n=4) | Re-epithelialization (histological score) ([2]; 20 nM, p=0.0004 and 5 nM, p=0.029) | Inflammation (histological score) ([2]; 20 nM, p=0.034) | Overall collagen deposition (Masson's Trichrome) ([2]; both concentrations, compared to vehicle and bFGF) | Lymphangiogenesis (podoplannin-positive vessels) ([2]; immunohistochemistry) | PECAM1- and Pan EC-positive vessels within the granulation tissue ([2]; immunohistochemistry, 5 nM and 20 nM) | Margin closure for the duration of the assay ([2]; topical, days 0-7) | Migration compared with VEGF or Ang 1 ([3]; VEGF 100 ng/ml, Ang 1 500 ng/ml (FIG. 2B legend)) | Competition for available Tie 2 in the pull down ([4]; ten fold excess, preclustered with soluble avidin)
1 | Vasculotide: biotinylated T7 peptide-PEG: Cys-His-His-His-Arg-His-Ser-Phe (SEQ ID NO: 2) conjugated to EZ-link-PEO-maleimide-biotin | only when preclustered with avidin was Vasculotide able to stimulate Tie 2 phosphorylation | dramatic increases in granulation tissue production | did not promote migration above that seen in the untreated sample | able to precipitate Tie 2 | – | – | – | – | – | – | – | – | – | – | – | – | – | – | –
2 | clustered Vasculotide: Vasculotide clustered with avidin in a 4:1 ratio, an obligate tetrameric compound | – | – | significant increases in chemotactic cell migration | – | compared favorably to Ang 1 | not capable of activating Tie 2 receptor activity | 5-10 nM | seemed to offer more benefit | not significantly different from vehicle | profound increases in regranulation and neovascularization | Significant decreases in wound margin | delayed re-epithelialization | only slightly increased | dramatically increased | not accompanied by an increase in lymphangiogenesis | dramatic increases in the number of PECAM1- and Pan EC-positive vessels | continued at an accelerated pace | not significantly different than that seen in samples treated with VEGF or Ang 1 | able to abolish this interaction
